{"source": "ChEMBL document CHEMBL1147361", "about": "“Microbial transformation of L-696,474, a novel cytochalasin as an inhibitor of HIV-1 protease” (J Nat Prod, 1993)"}
{"biological_target": "Protease (Human immunodeficiency virus 1, UniProt Q9YQ12)", "sequence (Q9YQ12 whole entry)": "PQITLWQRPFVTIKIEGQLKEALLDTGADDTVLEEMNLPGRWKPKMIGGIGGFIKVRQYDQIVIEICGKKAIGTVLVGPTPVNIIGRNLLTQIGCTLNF", "experiment": "Inhibition of HIV1 protease", "units": {"IC50": "µM"}}
{"smiles": "C=C1[C@@H](C)[C@H]2[C@H](Cc3ccccc3)NC(=O)[C@]23[C@H](OC(C)=O)/C=C/[C@@H](C)C[C@@H](CO)C/C=C/[C@H]3[C@@H]1O", "IC50": 22}
{"smiles": "C=C1[C@@H](C)[C@H]2[C@H](Cc3cccc(O)c3)NC(=O)[C@]23[C@H](OC(C)=O)/C=C/[C@@H](C)C[C@@H](CO)C/C=C/[C@H]3[C@@H]1O", "IC50": 38}
{"smiles": "C=C1[C@@H](C)[C@H]2[C@H](Cc3ccccc3)NC(=O)[C@]23[C@H](OC(C)=O)/C=C/[C@@H](C)C[C@@](O)(CO)C/C=C/[C@H]3[C@@H]1O", "IC50": 45}
{"smiles": "C=C1[C@@H](C)[C@H]2[C@H](Cc3cccc(O)c3)NC(=O)[C@]23[C@H](OC(C)=O)/C=C/[C@@H](C)C[C@@](O)(CO)C/C=C/[C@H]3[C@@H]1O", "IC50": "> 50"}
{"smiles": "C=C1[C@@H](C)[C@H]2[C@H](Cc3ccc(O)c(O)c3)NC(=O)[C@]23[C@H](OC(C)=O)/C=C/[C@@H](C)C[C@@H](CO)C/C=C/[C@H]3[C@@H]1O", "IC50": "> 50"}
{"smiles": "C=C1[C@@H](C)[C@H]2[C@H](Cc3ccc(O)cc3)NC(=O)[C@]23[C@H](OC(C)=O)/C=C/[C@@H](C)C[C@@H](CO)C/C=C/[C@H]3[C@@H]1O", "IC50": 35}
{"smiles": "C=C1[C@@H](C)[C@H]2[C@H](Cc3ccccc3)NC(=O)[C@]23[C@H](OC(C)=O)/C=C/[C@@H](C)C[C@@H](C)C/C=C/[C@H]3[C@@H]1O", "IC50": 3}
